The values below come from US4459227A, “Para-hydroxyphenylhydrazines as in situ precursors of iminoquinones and quinones” (Duke University, priority 1981, dated 1984).

Each structure is given as a SMILES string. Where two headings read alike, the source gives them in different places.

For data set [1], the target named is T1, Leucine Aminopeptidase (LAP), type III-CP (Sus scrofa, UniProt P28839).
T1 sequence (P28839 33-519): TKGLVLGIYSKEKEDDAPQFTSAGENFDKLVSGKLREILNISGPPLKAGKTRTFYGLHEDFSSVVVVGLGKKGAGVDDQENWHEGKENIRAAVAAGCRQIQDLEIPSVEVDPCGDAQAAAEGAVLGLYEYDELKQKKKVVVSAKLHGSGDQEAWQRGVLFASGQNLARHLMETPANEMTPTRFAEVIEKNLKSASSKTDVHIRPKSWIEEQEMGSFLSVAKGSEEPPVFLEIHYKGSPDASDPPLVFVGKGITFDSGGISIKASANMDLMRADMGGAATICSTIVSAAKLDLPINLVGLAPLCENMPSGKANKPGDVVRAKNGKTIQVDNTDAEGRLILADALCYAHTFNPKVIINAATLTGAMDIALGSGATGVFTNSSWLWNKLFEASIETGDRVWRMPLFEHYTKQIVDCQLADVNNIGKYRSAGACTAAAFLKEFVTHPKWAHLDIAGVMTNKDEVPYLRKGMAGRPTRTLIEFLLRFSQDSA
Put plainly: Leucine aminopeptidase in vitro hydrolysis (TLC). In kind it is biochemical. Particulars: 1 mg/ml AA-CHP, pH 9.0, up to 12 hours. The method, then:
Leucine Aminopeptidase (LAP), type III-CP (Sigma) was stored at 0°-4° C. in 0.75M saturated […], 0.1M Tris and 0.005M MgCl2 (pH 8) and contained 210 U/ml. Prior to the hydrolysis experiment, LAP (50λ) was activated by incubating it in 0.025M MnCl2 (0.2 ml), 0.5M Tris.HCl buffer (pH 9.0, 0.2 ml) and demineralized and ultra-filtered H2 O (0.6 ml) for at least 2 hours at 37° C. To each sample test tube was added AA-CHP (1.5 mg) in 0.02M Tris HCl buffer (pH 9.0, 0.5 ml) so that the final concentration was 1 mg/ml AA-CHP. […] They were dried and sprayed with 0.2% Ninhydrin in EtOH and the color was developed at 85° C. for 5 minutes. The in vitro hydrolysis of Leu-CHP by LAP was also concomitantly studied by scanning spectrophotometry at different times after the start of incubation with the enzyme. A blank reference cell containing only enzyme and buffer was used.

Data set [2] deals with mice. The method, then:
Cysteine hydrochloride was neutralized with 1N NaOH and diluted with PBS so that the final concentration was 30 mg/ml. In those groups that received only the test compounds, a single dose (up to 1000 mg/kg) was given i.p. and any toxic deaths were autopsied and hematoxylin and eosin sections obtained.

Data set [3] in a line: In vivo toxicity (LD50, survival, histology). The arrangement: species or system mice; key to Histologic Findings: Acute Renal Tubular Necrosis / Histologic Findings: Pulmonary Congestion and Edema: 0: absent; +: mild; ++: moderate; +++: severe. Particulars: mouse, in vivo, ip, mice; for NOAEL: read-out: non-toxic up to (dose). The method, then: (§1) Female DBA/2J mice, 8 weeks old, were injected intraperitoneally with test compound solutions (X, XI, XII, XIII, […]) to give a final concentration of 30 mg/ml.
(§2) In those groups receiving both test compound and cysteine, cysteine (1000 mg/kg) was given i.p. both 1 hour prior to and 2 or 3 hours after i.p. injection of the test compound. In Table 3 are the results of these experiments.

For data set [4], the system named is Female DBA/2J mice. The data set can be described thus: In vivo toxicity (LD50, survival, histology). The arrangement: key to Histologic Findings: Acute Renal Tubular Necrosis / Histologic Findings: Pulmonary Congestion and Edema: 0: absent; +: mild; ++: moderate; +++: severe. Particulars: for pulmonary congestion and edema (in words): Phe-CHP 600, Leu-CHP 1000, CHP-OEt 550 mg/kg. The method, then:
as §1, §2

A short description of data set [5]: Stability in aqueous media. The format is physicochemical.
The nature of data set [6]: Spectral study of rearrangement/reactions with nucleophiles, reducing and oxidizing agents. The format is physicochemical. The procedure: In order to characterize the products of hydrolysis of AA-CHP's, the hydrolysis of Leu-CHP by LAP was studied by absorption spectrophotometry. […] This was also true for the new maximum at 350 nm and for a second new "maximum" which appeared as a low, broad "peak" merging with 350 peak and centered at about 400 nm. However, by 22 minutes (not shown) the absorbance at 300 and 400 nm had diminished in intensity while the 350 maximum continued to increase, albeit at a slower rate. At pH 7.0 (FIG. 8B), the absorbance at 300 nm continued to slowly increase in intensity even up to 90 minutes after dissolving CHP-OEt (0.2 mg) in DMSO (0.02 ml) into 0.05M Phosphate buffer (3 ml). Furthermore, a second maximum at 350 nm developed but it remaind smaller in intensity than the 300 nm peak.
Table 2 summarizes the results of several separate experiments involving the reactions of CHP-OEt, CHA-OEt, pIQ-OEt and pBQ (0.5-1.0 mM) with various nucleophiles (lysine, 3-MPA) reducing agents (NaBH4, 3-MPA) and oxidizing agents (NaIO4, O2) in ten-fold molar excess in Tris-HCl buffer (0.05M, pH 9.0).
In these studies, CHP-OEt, CHA-OEt and pBQ* were all pure compounds, thus, their absorption could be unequivocably assigned, pIQ-OEt was generated by the autoxidation of CHA-OEt in solution and its presence was noted by the appearance of one absorbance maximum at 400 nm and the development of a distinct yellow color to a previously clear solution of CHA-OEt. […] On the other hand, there was a dissimilarity between the spectra of CHP-OEt and CHA-OEt. CHA-OEt was oxidized by O2 or NaIO4 to the pIQ-OEt with a λmax =400 nm whereas NaIO4 had no effect on the rate or nature of spectral change that occurred when . . .

The mark [7] stands for this setting: compound added: 3-MPA, pH 8-9, ten-fold excess.
Where [8] appears, read: compound added: Lysine, pH 8-9, ten-fold excess.

In general, LD50 refers to the dose at which mortality reaches 50%.

Consider `CCOC(=O)CN(NC(=O)[C@@H](N)CC(C)C)c1ccc(O)cc1` [Leu-CHP-OEt, β-N-(L-leucyl)-α-N-(carboxymethyl ethyl ester)-p-hydroxyphenylhydrazine], for which, in data set [1], the “cleavage/hydrolysis by LAP” value is “able to cleave”.

In the case of `N[C@@H](Cc1ccccc1)C(=O)NN(CC(=O)O)c1ccc(O)cc1` [Phe-CHP], the deaths/total in data set [2] (600 mg/kg i.p., no cysteine) is 6 of 7; in data set [2] (600 mg/kg i.p., no cysteine, listed as Phe--CHP), 6/7; in data set [2] (Phe-CHP 600 mg/kg i.p. with cysteine 1000 mg/kg before and after) it was “none”; in data set [2] (Phe-CHP 600 mg/kg i.p. with cysteine 1000 mg/kg before and after, listed as Phe--CHP), 0/3. The compound further had an LD100 in data set [2] (i.p., mice) of 600 mg/kg. Further, in data set [2] (no cysteine, Leu-CHP 1000 mg/kg, Phe-CHP 600 mg/kg i.p.), the “Time of Death” value is 36 to 44 h. Further, the “cleavage/hydrolysis by LAP” value in data set [1] is given as “able to cleave”. In data set [3], this compound registered an LD50 of 400 mg/kg. Besides, the survivors/total in data set [4] (400 mg/kg i.p.) is 3/5; in data set [4] (600 mg/kg i.p.) it was 1/7. Further, the “Histologic Findings: Acute Renal Tubular Necrosis” value in data set [4] (i.p., mice) is “+++”. In data set [4] (i.p., mice), the “acute renal tubular necrosis (in words)” value is on record as “severe acute renal tubular coagulative necrosis”. Also, the relative toxicity entry in data set [4] (i.p., mice) was “most toxic”. The “pulmonary congestion and edema (in words)” value in data set [4] (i.p.) was “minimal”.

As for `C[C@H](N)C(=O)NN(CC(=O)O)c1ccc(O)cc1` [Ala-CHP], the “cleavage/hydrolysis by LAP” value in data set [1] is “able to cleave”. The 50% lethal dose (LD50) in data set [3] was more than 1000 mg/kg. Also, the NOAEL in data set [3] is not below 1000 mg/kg. Also, the figures for the survivors/total in data set [4] (600 mg/kg i.p.) and in data set [4] (1000 mg/kg i.p.) were 5/5 and 6/6, respectively.

Consider `CCOC(=O)CN(N)c1ccc(O)cc1` [CHP-OEt, α-N-(carboxymethyl ethyl ester)-p-hydroxyphenylhydrazine], for which the entries for the “stability in aqueous media” value in data set [5] and in data set [5] (listed as IVa) were “obvious instability” and “decomposes rapidly”, respectively. Moreover, the absorption maximum in data set [6] (0.01M Tris buffer pH 9.0, FIG. 8A) is recorded as 300 nm. Moreover, in data set [6] (0.05M Phosphate buffer pH 7.0, FIG. 8B), the second absorption maximum amounted to 350 nm. In addition, the “Final Maximum (nm)” value in data set [6] (setting [7]) stood at 300 nm; in data set [6] (setting [8]), 350 nm; in data set [6] (compound added: NaBH4, pH 8-9, ten-fold excess) it was 300 nm; in data set [6] (compound added: NaIO4, pH 8-9, ten-fold excess), 350 nm; in data set [6] (compound added: none, pH 8-9), 350 nm. Moreover, in data set [6] (compound added: NaBH4, pH 8-9), the “Final Maximum (nm), appears after NaBH4 has decomposed” value is listed as 350 nm. Besides, in data set [6] (pH 8-9), the “Initial Maximum (nm)” value turned out to be 300 nm. This compound gave an LD50 in data set [3] of 400 to 550 mg/kg. For the same compound, the survivors/total was 3/3 in data set [4] (400 mg/kg i.p.) and 0/4 in data set [4] (550 mg/kg i.p. in 7% DMSO). Besides, in data set [4] (550 mg/kg i.p. in 7% DMSO), the deaths/total result was “four of four”. For the same compound, the “time of death after treatment” value in data set [4] (550 mg/kg i.p. in 7% DMSO) was not above 8 h. Besides, in data set [4] (i.p., mice), the “Histologic Findings: Acute Renal Tubular Necrosis” value was 0. Moreover, in data set [4] (i.p., mice), the “Histologic Findings: Pulmonary Congestion and Edema” value is listed as “+++”. The “microscopic examination of the heart” value in data set [4] (i.p., mice) was “no evidence of a toxic insult”. In data set [4] (i.p.), the “pulmonary congestion and edema (in words)” value is listed as “moderate to severe”.

With `N[C@@H](CCC(=O)O)C(=O)NN(CC(=O)O)c1ccc(O)cc1` [Glu-CHP], the “cleavage/hydrolysis by LAP” value in data set [1] was “not”. Also, in data set [3], the LD50 is more than 1000 mg/kg and the NOAEL is not below 1000 mg/kg. The survivors/total in data set [4] (600 mg/kg i.p.) is given as 5/5. Also, in data set [4] (1000 mg/kg i.p.), the survivors/total is listed as 6/6.

As to `NCCCC[C@H](N)C(=O)NN(CC(=O)O)c1ccc(O)cc1` [Lys-CHP], the “cleavage/hydrolysis by LAP” value in data set [1] is reported as “not”. In data set [3], the LD50 was more than 1000 mg/kg and the NOAEL is not below 1000 mg/kg. Also, the survivors/total in data set [4] (600 mg/kg i.p.) is reported as 5/5. In data set [4] (1000 mg/kg i.p.), the survivors/total was 6/6.

As to `CCOC(=O)CN=C1C=CC(=O)C=C1` [pIQ-OEt, reference compound], the “Final Maximum (nm)” value in data set [6] (setting [8]) is 300 nm. Also, the “λmax of pIQ-OEt formed by oxidation of CHA-OEt” value in data set [6] (oxidation by O2 or NaIO4) is 400 nm.

For the compound `CC(C)C[C@H](NC(=O)OC(C)(C)C)C(=O)NN(CC(=O)O)c1ccc(O)cc1` [Boc-Leu-CHP], the “cleavage/hydrolysis by LAP” value in data set [1] is “not”.

As for `CCOC(=O)CNc1ccc(O)cc1` [CHA-OEt, N(p-hydroxyphenyl)glycine ethyl ester, reference compound], the “Final Maximum (nm)” value in data set [6] (setting [7]) is 300 nm. In addition, the “Initial Maximum (nm)” value in data set [6] (pH 8-9) is 300 nm.
